Reference: US8114453B2, “Synergistically heat stable oil media having eicosa pentanoic acid (EPA) and docosa hexaenoic acid (DHA)” (Recon Oil Industries Private Limited, priority 2005, dated 2012)

Key:
[1] = Fatty acid composition of oils before and after heating (air incorporated by stirring) by Gas Liquid Chromatography; type: physicochemical; settings: from the fish oil source, heated with air incorporated
Excerpt: The heat stability of the highly unsaturated and easily oxidisable EPA/DHA in the oil blend of the invention, EPA/DHA from available sources of enriched fish oil was blended with groundnut oil in various proportions and the stability of the formulations tested is importantly to further confirm the unexpected and synergistic heat stability achieved by the oil formulation of the invention incorporating the EPA/DHA, oil blends with varying amount of active benefit agent EPA/DHA heated from ambient to upto 220 deg.C were tested. To maximize the process of deterioration, apart from heating at 180 deg.C, 200 deg.C and 220 deg. C., air was incorporated during heating by using a magnetic stirrer.

[2] = clinical trial, reported in background; cited from earlier work

| Compound | Heat stability of the fatty acid [1] | Effect on triglyceride levels [2] |
| --- | --- | --- |
| CC/C=C\C/C=C\C/C=C\C/C=C\C/C=C\CCCC(=O)O [EPA, Eicosa Pentaenoic Acid] | heat stable even at temperatures of up to 220 deg. C. |  |
| CC/C=C\C/C=C\C/C=C\CCCCCCCC(=O)O [ALNA, Alpha linolenic acid] |  | not effective to reduce triglyceride levels |
| CC/C=C\C/C=C\C/C=C\C/C=C\C/C=C\C/C=C\CCC(=O)O [DHA, Docosa Hexaenoic Acid] | heat stable even at temperatures of up to 220 deg. C. |  |
